Laboratory results reported in patent publication US6403602B1 (priority 1997, dated 2002).
Entries after “also recorded” stand apart in the source; their conditions may differ. Structures can show the parent of a compound that is named as a salt. Where two headings read alike, the source gives them in different places.

Experiments:
[1] = molecular target: T1, kappa1 sites (Cavia porcellus, UniProt P41144); assay: biochemical; format: binding, guinea pig
T1 construct: The brains were then homogenized in 50 mM Tris HCl, buffer pH 7.7, using a Polytron; from tissue; host or cells: guinea pig brain homogenate (membrane pellet)

[2] = molecular target: T2, δ opioid receptor (Mus musculus, UniProt P32300); assay: Antagonist activity (pA2) at δ in the functional assays; format: cell-based
T2 construct: from tissue; host or cells: organ-bath tissue, probably mouse vas deferens

[3] = molecular target: kappa3 receptors; format: binding, guinea pig; conditions: for Ki: read-out: Ki κ3 [^3H]NalBzoH
[4] = system: κ2 sites; format: binding, guinea pig
[5] = molecular target: T3, κ opioid receptor (Cavia porcellus, UniProt P41144); assay: Antagonist activity (pA2) at κ in the functional assays; format: cell-based
T3 construct: from tissue; host or cells: organ-bath tissue, probably guinea pig ileum

[6] = molecular target: T4, delta receptors (Cavia porcellus, UniProt A0A286XTF2); assay: biochemical; format: binding, guinea pig
T4 construct: The brains were then homogenized in 50 mM Tris HCl, buffer pH 7.7, using a Polytron; from tissue; host or cells: guinea pig brain homogenate (membrane pellet)

[7] = molecular target: T5, kappa receptors (Cavia porcellus, UniProt P41144); format: cell-based, guinea pig
T5 construct: The longitudinal muscle with the myenteric plexus attached was gently separated from the underlying circular muscle; from tissue; host or cells: guinea pig ileum longitudinal muscle with myenteric plexus

[8] = system: electrically stimulated mouse vas deferens; assay: tissue or blood; format: cell-based
[9] = system: electrically stimulated guinea pig ileum; assay: tissue or blood; format: cell-based
[10] = system: nociception (tail-flick); assay: Tail-flick test after subcutaneous administration; conditions: rat tail-flick, sc
[11] = system: mu receptors; format: cell-based, guinea pig
[12] = molecular target: mu opioid receptors (Cavia porcellus, UniProt A0ACM8Q262); format: binding, guinea pig; conditions: for Ki: read-out: Ki μ [^3H]DAMGO
[13] = molecular target: T6, delta receptors (Mus musculus, UniProt P32300); format: cell-based
T6 construct: The vas deferens from Swiss-Webster mice (30-35 g) were prepared as described by Hughes et al; from tissue; host or cells: mouse vas deferens (Swiss-Webster)

[14] = system: nociception (tail-flick); assay: Tail-flick test after intracerebroventricular administration; format: in vivo; conditions: rat tail-flick
[15] = Mus musculus, read-out: Mouse vas deferens maximum inhibition
[16] = Cavia porcellus, read-out: Guinea Pig Ileum IC50 (nM)
[17] = read-out: Ki δ, experiment done with [^3H]DPDPE
[18] = read-out: Guinea Pig Ileum IC50
[19] = dose equimolar to 5 mg/kg morphine

T1 sequence (P41144 whole entry): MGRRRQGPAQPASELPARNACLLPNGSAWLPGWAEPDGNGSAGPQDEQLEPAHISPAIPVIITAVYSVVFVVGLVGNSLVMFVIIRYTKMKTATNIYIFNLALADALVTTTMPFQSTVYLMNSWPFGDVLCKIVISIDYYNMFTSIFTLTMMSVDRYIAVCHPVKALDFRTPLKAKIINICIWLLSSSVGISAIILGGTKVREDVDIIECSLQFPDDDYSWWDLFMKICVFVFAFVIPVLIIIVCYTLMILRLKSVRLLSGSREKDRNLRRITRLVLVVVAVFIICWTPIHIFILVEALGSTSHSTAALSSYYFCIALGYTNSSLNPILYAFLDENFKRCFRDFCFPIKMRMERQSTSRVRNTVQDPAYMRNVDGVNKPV
T5 sequence (P41144 whole entry): as above
T4 sequence (A0A286XTF2 1-366): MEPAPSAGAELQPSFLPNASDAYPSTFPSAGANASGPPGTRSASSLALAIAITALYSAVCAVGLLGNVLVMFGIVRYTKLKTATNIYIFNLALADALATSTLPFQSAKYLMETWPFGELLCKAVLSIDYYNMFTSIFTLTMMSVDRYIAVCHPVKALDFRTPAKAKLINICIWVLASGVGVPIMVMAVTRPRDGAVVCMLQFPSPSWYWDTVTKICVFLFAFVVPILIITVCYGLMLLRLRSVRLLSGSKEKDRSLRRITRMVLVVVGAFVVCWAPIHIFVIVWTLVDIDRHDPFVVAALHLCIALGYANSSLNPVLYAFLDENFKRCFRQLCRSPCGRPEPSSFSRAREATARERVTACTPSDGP
Chain of mu opioid receptors (A0ACM8Q262 1-400): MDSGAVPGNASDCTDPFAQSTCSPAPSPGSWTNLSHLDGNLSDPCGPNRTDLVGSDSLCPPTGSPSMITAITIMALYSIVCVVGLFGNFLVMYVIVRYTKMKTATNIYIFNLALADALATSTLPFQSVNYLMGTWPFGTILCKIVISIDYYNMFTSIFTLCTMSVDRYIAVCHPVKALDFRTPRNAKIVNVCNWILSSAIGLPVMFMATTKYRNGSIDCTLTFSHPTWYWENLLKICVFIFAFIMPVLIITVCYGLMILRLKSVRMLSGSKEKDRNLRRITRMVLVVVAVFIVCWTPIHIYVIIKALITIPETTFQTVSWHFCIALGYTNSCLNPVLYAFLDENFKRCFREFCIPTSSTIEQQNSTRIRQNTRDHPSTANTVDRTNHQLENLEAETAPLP
T3 sequence (P41144 whole entry): as the sequence (P41144 whole entry) above
T2 sequence (P32300 whole entry): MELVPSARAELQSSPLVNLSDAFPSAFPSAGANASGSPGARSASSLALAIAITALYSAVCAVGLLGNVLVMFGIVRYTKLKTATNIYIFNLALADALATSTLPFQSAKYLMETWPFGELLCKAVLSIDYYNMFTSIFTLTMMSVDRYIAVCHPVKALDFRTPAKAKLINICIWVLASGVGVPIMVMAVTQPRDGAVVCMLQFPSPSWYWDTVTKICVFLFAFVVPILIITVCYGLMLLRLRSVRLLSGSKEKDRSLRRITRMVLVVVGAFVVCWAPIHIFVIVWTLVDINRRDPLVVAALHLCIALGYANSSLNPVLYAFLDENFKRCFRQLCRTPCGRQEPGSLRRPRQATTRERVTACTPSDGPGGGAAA
T6 sequence (P32300 whole entry): as above

Compound | Ki [3] [nM] | IC50 [4] [nM] | Ki [6] [nM] | Guinea Pig Ileum DR with Nor-BNI [7] | Ki ([1]; read-out: Ki κ1 [^3H]U69,593) [nM] | Ki [12] [nM] | Ki [6, 17] [nM] | also measured
C=CCN1CC[C@]23c4c5ccc(O)c4O[C@H]2/C(=N/NC(=O)c2ccccc2)CC[C@@]3(O)[C@H]1C5 [NalBzoH, naloxone benzoylhydrazone] | 0.3 | 66.5 | 1.4 | – | – | – | – | Ki [1]: 0.4 nM; Kb [2]: 17.4 nM; Kb [5]: 17.4 nM
CN1CC[C@]23c4c5ccc(OC(=O)c6ccccc6)c4O[C@H]2[C@@H](OS(=O)(=O)O)C=C[C@H]3[C@H]1C5 [NIDA # 20,273, 3-O-Benzoylmorphine-6-O-sulfate] | 513 | > 10000 | 600 | 1.31 ± 0.13 | – | – | – | Guinea Pig Ileum Ke of Nor-BNI [7]: 70.73 ± 29.13; Guinea Pig Ileum Ratio (Nor-BNI) [7]: 0.001; inhibition at 100 µM [8, 15]: 29.4%; Guinea pig ileum, result in words [9]: inhibited electrically induced twitches; IC50 [9, 16]: 658 ± 130 nM; analgesic activity in words ([10]; dose equimolar to 5 mg/kg morphine, listed as M3B6S): gradual onset of weak analgesia; also recorded: inactive; maximum analgesia, % of maximal analgesia ([10]; equimolar dose, over 4 hours): 27%; Guinea Pig Ileum DR with CTAP [11]: 3.68 ± 0.27; Guinea Pig Ileum Ke of CTAP [11]: 34.92 ± 3.22; Guinea Pig Ileum Ratio (CTAP) [11]: 0.554
CN1CC[C@]23c4c5ccc(OC(=O)C(C)(C)C)c4O[C@H]2[C@@H](OS(=O)(=O)O)C=C[C@H]3[C@H]1C5 [NIDA # 20,272, 3-O-Pivaloylmorphine-6-O-sulfate] | 11.2 | > 10000 | 15.2 | 1.13 ± 0.01 | – | – | – | Ki [1]: 1940 nM; Guinea Pig Ileum Ke of Nor-BNI [7]: 154.77 ± 16.8; Guinea Pig Ileum Ratio (Nor-BNI) [7]: 0.0004; inhibition at 20 µM [8, 15]: 26.2%; IC50 [9, 16]: 69.3 ± 25 nM; Guinea Pig Ileum DR with CTAP [11]: 4.50 ± 0.14; Guinea Pig Ileum Ratio (CTAP) [11]: 0.676
CC(C)=CCN1CC[C@]2(C)c3cc(O)ccc3C[C@H]1[C@H]2C [(+) Pentazocine-succinate] | 420 | 5270 | – | – | 206 | 595 | 3480 | –
O=C1/C(=C/c2ccccc2)C[C@@]2(O)[C@H]3Cc4ccc(O)c5c4[C@@]2(CCN3CC2CC2)[C@H]1O5 [BNTX] | – | 822 | – | – | 7.1 | 1.9 | – | –
c1csc(C2(N3CCCCC3)CCCCC2)c1 [TCP-HCl] | > 10000 | > 10000 | – | – | 2040 | 2200 | > 10000 | –
(−) Pentazocine-succinate | 12.4 | 424 | – | 6.10 | 4.4 | 5.7 | – | Guinea Pig Ileum Ke of Nor-BNI [7]: 4.00 ± 0.8; IC50 [9, 18]: 170 nM; Guinea Pig Ileum DR with CTAP [11]: 0.73 ± 0.38
Oc1ccc2c3c1O[C@H]1c4[nH]c5ccccc5c4C[C@@]4(O)[C@@H](C2)N(CC2CC2)CC[C@]314 [Naltrindole] | 12.4 | 540 | – | – | – | – | – | Ki [1]: 7.8 nM; Kb [2]: 0.012 nM; Kb [5]: 24.5 nM
Oc1ccc2c3c1O[C@H]1c4[nH]c5c(c4C[C@@]4(O)[C@@H](C2)N(CC2CC2)CC[C@]314)C[C@@]1(O)[C@H]2Cc3ccc(O)c4c3[C@@]1(CCN2CC1CC1)[C@H]5O4 [Nor-BNI (HCl)2, nor-binaltorphimine] | 15 | 37.5 | 6.3 | – | 0.3 | – | – | –
CC(=O)Oc1ccc2c3c1O[C@H]1[C@@H](OS(=O)(=O)[O-])C=C[C@H]4[C@@H](C2)[N+](C)(C)CC[C@@]341 [NIDA # 20,269, 3-O-Acetyl-N-methylmorphinium-6-O-sulfate] | 400 | > 10000 | 842 | – | – | – | – | Mouse vas deferens, result in words [8]: lacks activity; inhibition at 200 µM [8, 15]: 20%; Guinea pig ileum, result in words [9]: no activity; also recorded: lacks activity; analgesic activity in words ([10]; dose equimolar to 5 mg/kg morphine, listed as MM3A6S): devoid of any analgesic properties; also recorded: inactive
CC[C@@]12CCN(CC3CC3)C(C(=O)c3ccc(O)cc31)[C@@H]2C (single isomer, unassigned; (-)) [(−)EKC] | 3.9 | 25.2 | – | – | – | 0.4 | – | DR with Naltrindole [13]: 0.90; IC50 ([8]; read-out: IC50 (nM), Mouse Vas Deferens): 5.31 nM; IC50 ([9]; read-out: IC50 (nM), Guinea Pigs Ileum): 0.15 nM; DR with CTAP [11]: 0.62; Ki ([6]; read-out: Ki δ [^3H]Cl-DPDPE): 2 nM
CCC(=O)Oc1ccc2c3c1O[C@H]1[C@@H](OS(=O)(=O)O)C=C[C@H]4[C@@H](C2)N(C)CC[C@@]341 [NIDA # 20,270, 3-O-Propionylmorphine-6-O-sulfate] | 19.9 | > 10000 | 40 | 1.26 ± 0.33 | – | – | – | Ki [1]: 252 nM; Guinea Pig Ileum Ke of Nor-BNI [7]: 40.73; Guinea Pig Ileum Ratio (Nor-BNI) [7]: 0.002; inhibition at 20 µM [8, 15]: 20%; IC50 [9, 16]: 154 ± 48.6 nM; Guinea Pig Ileum Ke of CTAP [11]: 37.58 ± 2.09; Guinea Pig Ileum Ratio (CTAP) [11]: 0.515
Oc1ccc2c3c1O[C@H]1c4oc5ccccc5c4C[C@@]4(O)[C@@H](C2)N(CC2CC2)CC[C@]314 [NTB] | 7.5 | 406 | – | – | 10.2 | 6.5 | – | Ki ([6]; read-out: Ki δ [^3H]Cl-DPDPE): 0.06 nM
CN1CC[C@]23c4c5ccc(O)c4O[C@H]2[C@@H](OS(=O)(=O)O)C=C[C@H]3[C@H]1C5 [NIDA # 20,266, Morphine-6-O-Sulfate] | 6.3 | > 10000 | 18 | 0.87 ± 0.06 | – | – | – | Ki [1]: 1190 nM; binding to kappa1 sites in words [1]: weakly; Guinea pig ileum, result in words [9]: inhibited electrically induced twitches; IC50 [9, 16]: 67 ± 12.1 nM; duration of maximal analgesia ([14]; icv, molar dose equivalent to the lower dose of morphine): 70 min; analgesic activity in words [10, 19]: maximal analgesic effect similar to morphine; duration of maximal analgesic effect [10, 19]: over 3 hours; affinity to kappa3 receptors in words [3]: greater affinity than that of morphine; selectivity for kappa3 receptors, greater than morphine [3]: 2.2 fold; Guinea Pig Ileum DR with CTAP [11]: 5.00 ± 2.16; Guinea Pig Ileum Ke of CTAP [11]: 29.18 ± 15.7; Guinea Pig Ileum Ratio (CTAP) [11]: 0.663; affinity to mu receptors in words [12]: greater affinity than that of morphine; selectivity for mu-receptors, greater than morphine [12]: 3 fold; affinity to delta receptors in words [6]: greater affinity than that of morphine
CCCN1CCCC(c2cccc(O)c2)C1 (single isomer, unassigned; (+)) [(+) 3-PPP-HCl] | 782 | > 10000 | – | – | 388 | 3450 | > 10000 | –
c1ccc(C2(N3CCCCC3)CCCCC2)cc1 [PCP-HCl] | > 10000 | > 10000 | – | – | > 10000 | > 10000 | > 10000 | –
CC1C2Cc3ccc(O)cc3C1(C)CCN2CC1CC1 (single isomer, unassigned; (+)) [(+) Cyclazocine] | 786 | > 10000 | – | – | 383 | 659 | > 10000 | –
CC(C)C(=O)Oc1ccc2c3c1O[C@H]1[C@@H](OS(=O)(=O)O)C=C[C@H]4[C@@H](C2)N(C)CC[C@@]341 [NIDA # 20,271, 3-O-Isobutyrylmorphine-6-O-sulfate] | 266 | > 10000 | 584 | 1.38 ± 0.01 | – | – | – | Ki [1]: 4560 nM; Guinea Pig Ileum Ke of Nor-BNI [7]: 53.14 ± 1.30; Guinea Pig Ileum Ratio (Nor-BNI) [7]: 0.001; inhibition at 100 µM [8, 15]: 38%; IC50 [9, 16]: 1960 nM; Guinea Pig Ileum DR with CTAP [11]: 9.45 ± 4.31; Guinea Pig Ileum Ke of CTAP [11]: 13.55 ± 6.89; Guinea Pig Ileum Ratio (CTAP) [11]: 1.427
C=CCN1CC[C@@]2(C)c3cc(O)ccc3C[C@@H]1[C@@H]2C [(+) SKF 10,047-HCl] | > 1000 | > 10000 | – | – | 2890 | 2120 | > 10000 | –
CN1CC[C@]23c4c5ccc(O)c4O[C@H]2[C@@H](O)C=C[C@H]3[C@H]1C5 [Morphine, morphine] | – | – | – | – | – | – | – | onset of analgesic response after icv injection ([14]; higher dose 23.6 μg/4 μl/rat): 6 min
C=CCN1CC[C@@]2(C)c3cc(O)ccc3CC1[C@@H]2C.Cl (single isomer, unassigned; (-)) [(−) SKF 10,047-HCl] | – | 132 | – | 273.10 | 0.3 | 0.7 | 3.8 | Guinea Pig Ileum Ke of Nor-BNI [7]: 0.08 ± 0.01; IC50 [9, 18]: 10.5 nM; Guinea Pig Ileum DR with CTAP [11]: 0.44 ± 0.02
